From US9156840B2, “D2 antagonists, methods of synthesis and methods of use” (ALTOS THERAPEUTICS, LLC, priority 2010, dated 2015) come the findings set out here.

Counter-ions that a name gives are not always drawn.

T1 sequence (P14416 whole entry): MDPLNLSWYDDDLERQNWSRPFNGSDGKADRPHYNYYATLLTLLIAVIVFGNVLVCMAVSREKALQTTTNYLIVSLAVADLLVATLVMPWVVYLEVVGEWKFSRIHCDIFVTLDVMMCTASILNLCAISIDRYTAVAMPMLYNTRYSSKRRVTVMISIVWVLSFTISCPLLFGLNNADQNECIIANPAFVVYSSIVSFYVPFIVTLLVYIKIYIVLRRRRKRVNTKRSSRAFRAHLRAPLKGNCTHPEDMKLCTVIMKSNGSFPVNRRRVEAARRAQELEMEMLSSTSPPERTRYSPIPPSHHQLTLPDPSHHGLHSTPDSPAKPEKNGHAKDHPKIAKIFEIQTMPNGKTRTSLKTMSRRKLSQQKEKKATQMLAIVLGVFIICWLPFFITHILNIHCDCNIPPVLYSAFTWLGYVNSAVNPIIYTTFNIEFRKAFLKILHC

The test addresses T1, human D2 receptor (Homo sapiens, UniProt P14416).
T1 construct: expressed in transfected cells; cDNA from Origene clones TC308892 and SC123573
Kind of test: D2 receptor radioligand binding assay (membranes of HEK-293 cells expressing human D2 receptor). To be noted: radioligand displacement, HEK293 membranes, 37° C. for 120 minutes; read-out: Affinity Score (IC50 values for D2 on a scale of 1 through 5). The procedure:
Affinity for the dopamine D2 receptor was tested in vitro, and the following describes the construction of cell lines expressing human D2 receptor, as well as the binding assays themselves.
Establishment of Stable Cell Lines Expressing Either the Cloned Human D2S Receptor or the Cloned Human D2L Receptor.
The human D2 receptor exists in two isoforms: the short form (D2S) and the long form (D2L). The two isoforms are generated from the D2 gene by alternative splicing and the D2L isoform differs from the D2S isoform by the addition of 29 amino acids in the third intracellular loop of its protein structure.
To establish HEK-293 cell lines stably expressing either the human D2S or the human D2L, the human dopamine D2S receptor (Genebank Accession Number NM_016574) and human dopamine D2L receptor (Genebank Accession Number BC021195) were amplified by PCR from Origene cDNA clones TC308892 and SC123573 (respectively) using the following primers: 5-[…]-3 (SEQ ID NO: 1) sense and 5-[…]-3 (SEQ ID NO: 2) antisense. The resulting PCR products were respectively cloned into pENTR-D-TOPO (Invitrogen), sequenced and then transferred into the pCDNA3.2-DEST (Invitrogen) using the LR-clonasc gateway reaction (Invitrogen) and sequenced again to verify the genes sequence.
HEK293 cells were maintained in Eagles Minimum Essential Medium (MEM) supplemented with 0.292 g/L L-glutamine and 10% (v/v) fetal calf serum at 37° C. in a 5% CO2 humidified atmosphere. Cells were grown to 60-80% confluency in 10 cm dishes before transfection. Transfection of the D2S and D2L containing pcDNA3.2-DEST into HEK-293 cells were performed using Lipofectamine 2000 (Invitrogen). Transfected cells were seeded and diluted 2 days after transfection and maintained in culture medium supplemented with 500 μg/mL G418. The HEK-293 cell line expressing the huD2S (R2D2S) and the huD2L (R2D2L) were maintained in culture medium supplemented with 500 μg/mL G418.
D2 Receptor Binding Assays
HEK293 cells were in Eagles Minimum Essential Medium (MEM) supplemented with 10% FBS, 0.292 g/liter L-glutamine, 10^5 units/liter penicillin, 100 mg/liter streptomycin and […] Geneticin at 37° C. in a 5% CO2 humidified atmosphere. Cells were grown to 80-90% confluence and harvested with cell stripper (Cellgro #25-056-CI). Cells were then washed with PBS (2×). Cells were either pelleted and frozen at −80° C. or membranes were prepared immediately.
Cells from pellet were resuspended in homogenization buffer (15 mM Tris*HCl, 2 mM MgCl2*6H2O, 0.3 mM EDTA, 1 mM EGTA pH 7.4 @ 4° C.). Cells were then homogenized using a Polytron (PT 1200) homogenizer at setting 6 for 10 seconds. Crude membranes were pelleted at 39, 412 g for 15 min, at 4° C. (2×) in a Sorval RC6 plus centrifuge. Membranes were finally resuspended in resuspension buffer (50 mM Tris*HCl, 120 mM NaCl, 10 mM MgCl2*6H2O, 1 mM EDTA pH 7.4 @ 4° C.) and sonicated (Fisher Sonic Dismembrator) at setting 5 for 10 seconds.
The radioligand binding assays were conducted in microtiter plates (Costar #3961) with a final volume of 1.0 mL.
The membranes were thawed at room temperature, briefly homogenized using a sonicator, diluted in assay buffer and kept on wet ice until being added to the assay plate. Membranes were diluted to a final target tissue concentration of 10 μg protein per well. The specific binding should be greater than 80% with less than 10% total radioligand bound to minimize ligand depletion errors.
First compound of the invention (50 μL) or assay buffer (50 mM Tris*HCl, 120 mM NaCl, 5 mM MgCl2*6H2O, 1 mM EDTA, 5 mM KCl pH 7.4 @37° C. plus 0.025% BSA), buffer (700 μL) and then membrane (200 μL) were added to the deep well assay plate, which was then shaken for 10 minutes. Finally, radioligand (50 μL) was added.
The assay plates were incubated at 37° C. for 120 minutes.
The assay plate were filtered over 0.3% PEI pretreated glass fiber filtermats (GF/C) using a Packard Filtermate cell harvester. […]
`O=C(O)c1ccccc1CN1CN(c2ccc(F)cc2)C2(CCN(CCCN3C(=O)C4(CC4)c4ccccc43)CC2)C1=O` [Compound 161, 2-((1-(4-Fluorophenyl)-4-oxo-8-(3-(2′-oxospiro[cyclopropane-1,3′-indoline]-1′-yl)propyl)-1,3,8-triazaspiro[4.5]decan-3-yl)methyl)benzoic acid]: the IC50 was less than 0.01 µM.
Regarding `O=C(O)c1cccc(CN2CN(c3ccccc3)C3(CCN(CCCn4c(=O)[nH]c5ccc(Cl)cc54)CC3)C2=O)c1` [Compound 100, 3-((8-(3-(6-Chloro-2-oxo-2,3-dihydro-1H-benzo[d]imidazol-1-yl)propyl)-4-oxo-1-phenyl-1,3,8-triazaspiro[4.5]decan-3-yl)methyl)benzoic acid], the IC50 is less than 0.01 µM.
As to `O=C(O)c1ccccc1CN1CN(c2ccccc2)C2(CCN(CCCN3C(=O)C4(CC4)c4ccccc43)CC2)C1=O` [Compound 149, 2-((4-Cho-8-(3-(2′-oxospiro[cyclopropane-1,3′-indoline]-1′-yl)propyl)-1-phenyl-1,3,8-triazaspiro[4.5]decan-3-yl)methyl)benzoic acid], the IC50 was less than 0.01 µM.
Regarding `CC(C)(Oc1ccc(CN2CN(c3ccccc3)C3(CCN(CCCn4c(=O)[nH]c5ccccc54)CC3)C2=O)cc1)C(=O)O` [Compound 102, 2-Methyl-2-(4-((4-oxo-8-(3-(2-oxo-2,3-dihydro-1H-benzo[d]imidazol-1-yl)propyl)-1-phenyl-1,3,8-triazaspiro[4.5]decan-3-yl)methyl)phenoxy)propanoic acid], the IC50 is less than 0.01 µM.
For `CC1(C)C(=O)N(CCCN2CCC3(CC2)C(=O)N(c2ccc(NS(C)(=O)=O)cc2)CN3c2ccccc2)c2ccccc21` [Compound 217, N-(4-(8-(3-(3,3-Dimethyl-2-oxoindolin-1-yl)propyl)-4-oxo-1-phenyl-1,3,8-triazaspiro[4.5]decan-3-yl)phenyl)methanesulfonamide], the IC50 is less than 0.01 µM.
For `CC1C(=O)N(CCCN2CCC3(CC2)C(=O)N(Cc2cccc(C(=O)O)c2)CN3c2ccccc2)c2ccccc21` (stereo not drawn) [Compound 146, 3-((8-(3-(3-methyl-2-oxoindolin-1-yl)propyl)-4-oxo-1-phenyl-1,3,8-triazaspiro[4.5]decan-3-yl)methyl)benzoic acid], the IC50 is less than 0.01 µM.
`O=C(O)[C@@H](c1ccccc1)N1CN(c2ccccc2)C2(CCN(CCCn3c(=O)[nH]c4ccccc43)CC2)C1=O` [Compound 39, (R)-2-(4-oxo-8-(3-(2-oxo-2,3-dihydro-1H-benzo[d]imidazol-1-yl)propyl)-1-phenyl-1,3,8-triazaspiro[4.5]decan-3-yl)-2-phenylacetic acid]: the IC50 was less than 0.01 µM.
For the compound `O=C(O)c1cccc(CN2CN(c3ccc(F)cc3)C3(CCN(CCCN4C(=O)C5(CC5)c5ccccc54)CC3)C2=O)c1` [Compound 138, 3-((1-(4-Fluorophenyl)-4-oxo-8-(3-(2′-oxospiro[cyclopropane-1,3′-indoline]-1′-yl)propyl)-1,3,8-triazaspiro[4.5]decan-3-yl)methyl)benzoic acid], the IC50 is less than 0.01 µM.
Turning to `O=C(CCCN1CCC2(CC1)C(=O)N(Cc1ccccc1C(=O)O)CN2c1ccccc1)c1ccccc1` [Compound 154, 2-((4-oxo-8-(4-oxo-4-phenylbutyl)-1-phenyl-1,3,8-triazaspiro[4.5]decan-3-yl)methyl)benzoic acid], the IC50 was less than 0.01 µM.
Consider `O=C(O)c1cccc(CN2CN(c3ccc(F)cc3)C3(CCN(CCCN4C(=O)Cc5ccccc54)CC3)C2=O)c1` [Compound 145, 3-((1-(4-Fluorophenyl)-4-oxo-8-(3-(2-oxoindolin-1-yl)propyl)-1,3,8-triazaspiro[4.5]decan-3-yl)methyl)benzoic acid], for which the IC50 is less than 0.01 µM.
Regarding `CC1(F)C(=O)N(CCCN2CCC3(CC2)C(=O)N(Cc2ccccc2C(=O)O)CN3c2ccc(F)cc2)c2ccccc21` (stereo not drawn) [Compound 163], the 50% inhibitory concentration (IC50) was less than 0.01 µM.
Consider `O=C(CCCN1CCC2(CC1)C(=O)N(c1ccccc1C(=O)O)CN2c1ccccc1)c1ccccc1` [Compound 180, 2-(4-oxo-8-(4-oxo-4-phenylbutyl)-1-phenyl-1,3,8-triazaspiro[4.5]decan-3-yl)benzoic acid], for which the 50% inhibitory concentration (IC50) was less than 0.01 µM.
As to `O=C(O)c1ccc(CN2CN(c3ccccc3)C3(CCN(CCCn4c(=O)[nH]c5ccccc54)CC3)C2=O)cc1` [Compound 17, 4-((4-Oxo-8-(3-(2-oxo-2,3-dihydro-1H-benzo[d]imidazol-1-yl)propyl)-1-phenyl-1,3,8-triazaspiro[4.5]decan-3-yl)methyl)benzoic acid], the IC50 is less than 0.01 µM.
`CS(=O)(=O)Nc1ccc(N2CN(c3ccccc3)C3(CCN(CCCN4C(=O)Cc5ccccc54)CC3)C2=O)cc1` [Compound 215, N-(4-(4-oxo-8-(3-(2-oxoindolin-1-yl)propyl)-1-phenyl-1,3,8-triazaspiro[4.5]decan-3-yl)phenyl)methanesulfonamide]: the IC50 was less than 0.01 µM.
As to `O=C(O)c1cccc(CN2CN(c3ccccc3)C3(CCN(CCCC4C(=O)Nc5ccccc54)CC3)C2=O)c1` (stereo not drawn) [Compound 160, 3-((4-oxo-8-(3-(2-oxoindolin-3-yl)propyl)-1-phenyl-1,3,8-triazaspiro[4.5]decan-3-yl)methyl)benzoic acid, hydrochloride], the IC50 was less than 0.01 µM.
Take `CS(=O)(=O)Nc1cccc(CN2CN(c3ccccc3)C3(CCN(CCCN4C(=O)Cc5ccccc54)CC3)C2=O)c1` [Compound 213, N-(3-((4-Cho-8-(3-(2-oxoindolin-1-yl)propyl)-1-phenyl-1,3,8-triazaspiro[4.5]decan-3-yl)methyl)phenyl)methanesulfonamide]: the IC50 is less than 0.01 µM.
Under `O=C(O)[C@H](c1ccccc1)N1CN(c2ccccc2)C2(CCN(CCCN3C(=O)Cc4ccccc43)CC2)C1=O` [Compound 170, (S)-2-(4-oxo-8-(3-(2-Oxoindolin-1-yl)propyl)-1-phenyl-1,3,8-triazaspiro[4.5]decan-3-yl)-2-phenylacetic acid] stands less than 0.01 µM; under `O=C(O)c1cccc(CN2CN(c3ccccc3)C3(CCN(CCCC(=O)c4cccs4)CC3)C2=O)c1` [Compound 143, 3-((4-oxo-8-(4-oxo-4-(thiophen-2-yl)butyl)-1-phenyl-1,3,8-triazaspiro[4.5]decan-3-yl)methyl)benzoic acid, hydrochloride], less than 0.01 µM.
As to `O=C(O)c1cccc(CN2CN(c3ccc(F)cc3)C3(CCN(CCCn4c(=O)[nH]c5ccccc54)CC3)C2=O)c1` [Compound 43, 3-((1-(4-Fluorophenyl)-4-oxo-8-(3-(2-oxo-2,3-dihydro-1H-benzo[d]imidazol-1-yl)propyl)-1,3,8-triazaspiro[4.5]decan-3-yl)methyl)benzoic acid], the half-inhibitory concentration (IC50) is less than 0.01 µM.
As to `COC(=O)c1cccc(N2CN(c3ccccc3)C3(CCN(CCCC(=O)c4ccccc4)CC3)C2=O)c1` [Compound 179, Methyl 3-(4-oxo-8-(4-oxo-4-phenylbutyl)-1-phenyl-1,3,8-triazaspiro[4.5]decan-3-yl)benzoate], the IC50 was less than 0.01 µM.
In the case of `O=C(O)c1cccc(N2CN(c3ccccc3)C3(CCN(CCCC(=O)c4ccccc4)CC3)C2=O)c1` [Compound 177, 3-(4-Cho-8-(4-oxo-4-phenylbutyl)-1-phenyl-1,3,8-triazaspiro[4.5]decan-3-yl)benzoic acid], the IC50 was less than 0.01 µM.
